# Measured values from patent publication US12409171B2, “Pharmaceutically active pyrazolo-pyridone modulators of DCN1/2-mediated cullin neddylation” (UNIVERSITY OF KENTUCKY RESEARCH FOUNDATION, priority 2019, dated 2025).
# Target: DCN1 (Homo sapiens (Human), UniProt Q96GG9)
# Assay: TR-FRET binding assay (biotin-DCN1 / Ac-UBE2M12-AlexaFluor488)
# Conditions: mean ± SD (n); read-out: DCN1_TRFRET Mean EC50
# Procedure: • IC50 values were generated using our TR-FRET binding assay and are represented as the mean of three replicates with errors reported as the standard deviation.
# The assay cocktail was then incubated for 1 h at room temperature and distributed using a WellMate instrument (Matrix). Compounds to be screened were added to assay plates from DMSO stock solutions by pin transfer using 50SS pins (V&P Scientific). […] All compounds were tested in triplicate or more.
# Sequence of DCN1 (Q96GG9 whole entry): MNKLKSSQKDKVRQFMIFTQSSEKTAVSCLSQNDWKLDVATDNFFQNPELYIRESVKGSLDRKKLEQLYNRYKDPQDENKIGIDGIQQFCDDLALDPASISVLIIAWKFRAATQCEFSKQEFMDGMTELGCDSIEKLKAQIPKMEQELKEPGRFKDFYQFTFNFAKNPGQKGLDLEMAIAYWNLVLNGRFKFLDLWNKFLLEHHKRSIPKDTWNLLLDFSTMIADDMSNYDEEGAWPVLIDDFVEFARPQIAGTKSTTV
row,Structure (SMILES),EC50
1,"CCN1C(=O)[C@@H](NC(=O)c2cccc(C(F)(F)F)c2)[C@@H](c2ccc(F)cc2)c2c(CN(C)C)nn(-c3ccccc3)c21 [RG-0014053, N-[(4S,5S)-3-[(dimethylamino)methyl]-7-ethyl-4-(4-fluorophenyl)-6-oxo-1-phenyl-1H,4H,5H,6H,7H-pyrazolo[3,4-b]pyridin-5-yl]-3-(trifluoromethyl)benzamide]",90.7 ± 4.38 nM
2,"Cc1nn(-c2ccccc2)c2c1[C@H](c1ccc(F)cc1)[C@H](NC(=O)c1cccc(C(F)(F)F)c1)C(=O)N2CO [RG-0013981, N-[(4S,5S)-4-(4-fluorophenyl)-7-(hydroxymethyl)-3-methyl-6-oxo-1-phenyl-1H,4H,5H,6H,7H-pyrazolo[3,4-b]pyridin-5-yl]-3-(trifluoromethyl)benzamide]",> 36500 nM
3,"CCN1C(=O)[C@@H](NC(=O)c2cccc(C(F)(F)F)c2)[C@@H](c2ccc(F)cc2)c2c(CNS(N)(=O)=O)nn(-c3ccccc3)c21 [RG-0014161, N-[(4S,5S)-7-ethyl-4-(4-fluorophenyl)-6-oxo-1-phenyl-3-[(sulfamoylamino)methyl]-1H,4H,5H,6H,7H-pyrazolo[3,4-b]pyridin-5-yl]-3-(trifluoromethyl)benzamide]",145 ± 26.2 nM
4,"Cc1nn(-c2ccccc2)c2c1[C@H](c1ccc(F)cc1)[C@H](N(C)C(=O)c1cccc(C(F)(F)F)c1)C(=O)N2C [RG-0008886, N-[(4S,5S)-4-(4-fluorophenyl)-3,7-dimethyl-6-oxo-1-phenyl-1H,4H,5H,6H,7H-pyrazolo[3,4-b]pyridin-5-yl]-N-methyl-3-(trifluoromethyl)benzamide]",> 36500 nM
5,"CCN1C(=O)[C@@H](NC(=O)c2cccc(C(F)(F)F)c2)[C@@H](c2ccc(F)cc2)c2c(CBr)nn(-c3ccccc3)c21 [RG-0014144, N-[(4S,5S)-3-(bromomethyl)-7-ethyl-4-(4-fluorophenyl)-6-oxo-1-phenyl-1H,4H,5H,6H,7H-pyrazolo[3,4-b]pyridin-5-yl]-3-(trifluoromethyl)benzamide]",186 ± 32.6 nM
6,"Cc1cccc(C(=O)N[C@@H]2C(=O)N3CCCn4nc(C)c(c43)[C@@H]2c2ccc(F)cc2)c1 [RG-0008682, N-[(5S,6S)-5-(4-fluorophenyl)-3-methyl-7-oxo-1,2,8-triazatricyclo[6.3.1.0^4,^12]dodeca-2,4(12)-dien-6-yl]-3-methylbenzamide]",12300 nM
7,"C=CCN1C(=O)[C@@H](NC(=O)c2cccc(C(F)(F)F)c2)[C@@H](c2ccc(F)cc2)c2c(C)nn(-c3ccccc3)c21 [RG-0014007, N-[(4S,5S)-4-(4-fluorophenyl)-3-methyl-6-oxo-1-phenyl-7-(prop-2-en-1-yl)-1H,4H,5H,6H,7H-pyrazolo[3,4-b]pyridin-5-yl]-3-(trifluoromethyl)benzamide]",1550 ± 157 nM
8,"CCN1C(=O)[C@@H](NC(=O)c2cccc(C(F)(F)F)c2)[C@@H](c2ccc(F)cc2)c2c(CNCC(F)(F)F)nn(-c3ccccc3)c21 [RG-0014145, N-[(4S,5S)-7-ethyl-4-(4-fluorophenyl)-6-oxo-1-phenyl-3-{[(2,2,2-trifluoroethyl)amino]methyl}-1H,4H,5H,6H,7H-pyrazolo[3,4-b]pyridin-5-yl]-3-(trifluoromethyl)benzamide]",161 ± 13.1 nM
9,"CCN1C(=O)[C@@H](NC(=O)c2cccc(C(F)(F)F)c2)[C@@H](c2ccc(F)cc2)c2c(COC(C)=O)nn(-c3ccccc3)c21 [RG-0013839, [(4S,5S)-7-ethyl-4-(4-fluorophenyl)-6-oxo-1-phenyl-5-[3-(trifluoromethyl)benzamido]-1H,4H,5H,6H,7H-pyrazolo[3,4-b]pyridin-3-yl]methyl acetate]",116 ± 13.2 nM
10,"CCN1C(=O)[C@@H](NC(=O)c2cccc(C(F)(F)F)c2)[C@@H](c2ccc(F)cc2)c2c(CNS(C)(=O)=O)nn(-c3ccccc3)c21 [RG-0014140, N-[(4S,5S)-7-ethyl-4-(4-fluorophenyl)-3-(methanesulfonamidomethyl)-6-oxo-1-phenyl-1H,4H,5H,6H,7H-pyrazolo[3,4-b]pyridin-5-yl]-3-(trifluoromethyl)benzamide]",94.7 ± 19.7 nM
11,"Cc1nn(-c2ccccc2)c2c1[C@H](c1ccc(F)cc1)[C@H](NC(=O)c1cccc(C(F)(F)F)c1)C(=O)N2C1CCC1 [RG-0013050, N-[(4S,5S)-7-cyclobutyl-4-(4-fluorophenyl)-3-methyl-6-oxo-1-phenyl-1H,4H,5H,6H,7H-pyrazolo[3,4-b]pyridin-5-yl]-3-(trifluoromethyl)benzamide]",2580 ± 247 nM
12,"CCN1C(=O)[C@@H](NC(=O)c2cccc(C)c2)[C@@H](c2ccc(F)cc2)c2c(C)nn(C(C)C)c21 [RG-0008860, N-[(4S,5S)-7-ethyl-4-(4-fluorophenyl)-3-methyl-6-oxo-1-(propan-2-yl)-1H,4H,5H,6H,7H-pyrazolo[3,4-b]pyridin-5-yl]-3-methylbenzamide]",467 ± 28 nM
13,"Cc1cccc(C(=O)N[C@@H]2CNc3c(c(C)nn3-c3ccccc3)[C@@H]2c2ccc(F)cc2)c1 [RG-0009506, N-[(4S,5S)-4-(4-fluorophenyl)-3-methyl-1-phenyl-1H,4H,5H,6H,7H-pyrazolo[3,4-b]pyridin-5-yl]-3-methylbenzamide]",> 36500 nM
14,"CCN1C(=O)[C@@H](NC(=O)c2cccc(C(F)(F)F)c2)[C@@H](c2ccc(F)cc2)c2c(CNC(=O)CC(C)C)nn(-c3ccccc3)c21 [RG-0014052, N-[(4S,5S)-7-ethyl-4-(4-fluorophenyl)-3-[(3-methylbutanamido)methyl]-6-oxo-1-phenyl-1H,4H,5H,6H,7H-pyrazolo[3,4-b]pyridin-5-yl]-3-(trifluoromethyl)benzamide]",114 ± 8.67 nM
15,"CCN1C(=O)[C@@H](NC(=O)c2cccc(C(F)(F)F)c2)[C@@H](c2ccc(F)cc2)c2c(CNC(=O)CCCC[C@@H]3SC[C@@H]4NC(=O)N[C@@H]43)nn(-c3ccccc3)c21 [RG-0014155, N-[(4S,5S)-3-({5-[(3aS,4S,6aR)-2-oxo-hexahydro-1H-thieno[3,4-d]imidazol-4-yl]pentanamido}methyl)-7-ethyl-4-(4-fluorophenyl)-6-oxo-1-phenyl-1H,4H,5H,6H,7H-pyrazolo[3,4-b]pyridin-5-yl]-3-(trifluoromethyl)benzamide]",123 ± 22.5 nM
16,"CCN1C(=O)[C@@H](NC(=O)c2ccc(F)c(C)c2)[C@@H](c2ccc(F)cc2)c2c(C)nn(-c3ccccc3)c21 [RG-0014168, N-[(4S,5S)-7-ethyl-4-(4-fluorophenyl)-3-methyl-6-oxo-1-phenyl-1H,4H,5H,6H,7H-pyrazolo[3,4-b]pyridin-5-yl]-4-fluoro-3-methylbenzamide]",1690 ± 115 nM
17,"CCN1C(=O)[C@@H](NC(=O)c2cccc(-c3ccccc3)c2)[C@@H](c2ccc(F)cc2)c2c(C)nn(-c3ccccc3)c21 [RG-0013978, N-[(4S,5S)-7-ethyl-4-(4-fluorophenyl)-3-methyl-6-oxo-1-phenyl-1H,4H,5H,6H,7H-pyrazolo[3,4-b]pyridin-5-yl]-[1,1′-biphenyl]-3-carboxamide]",1310 ± 97.3 nM
18,"CCN1C(=O)[C@@H](NC(=O)c2cccc(C(F)(F)F)c2)[C@@H](c2ccc(F)cc2)c2c(CN3CCC(F)(F)CC3)nn(-c3ccccc3)c21 [RG-0014146, N-[(4S,5S)-3-[(4,4-difluoropiperidin-1-yl)methyl]-7-ethyl-4-(4-fluorophenyl)-6-oxo-1-phenyl-1H,4H,5H,6H,7H-pyrazolo[3,4-b]pyridin-5-yl]-3-(trifluoromethyl)benzamide]",321 ± 27.3 nM
19,"CCN1C(=O)[C@@H](NC(=O)c2cccc(C(C)C)c2)[C@@H](c2ccc(F)cc2)c2c(C)nn(-c3ccccc3)c21 [RG-0014166, N-[(4S,5S)-7-ethyl-4-(4-fluorophenyl)-3-methyl-6-oxo-1-phenyl-1H,4H,5H,6H,7H-pyrazolo[3,4-b]pyridin-5-yl]-3-(propan-2-yl)benzamide]",473 ± 70.7 nM
20,"CCN1C(=O)[C@@H](NC(=O)c2cccc(C(F)(F)F)c2)[C@@H](c2ccc(F)cc2)c2c(CNC(=O)CCOCCOCCNC(=O)CCCC[C@@H]3SC[C@@H]4NC(=O)N[C@@H]43)nn(-c3ccccc3)c21 [RG-0014159, N-[(4S,5S)-3-({3-[2-(2-{5-[(3aS,4S,6aR)-2-oxo-hexahydro-1H-thieno[3,4-d]imidazol-4-yl]pentanamido}ethoxy)ethoxy]propanamido}methyl)-7-ethyl-4-(4-fluorophenyl)-6-oxo-1-phenyl-1H,4H,5H,6H,7H-pyrazolo[3,4-b]pyridin-5-yl]-3-(trifluoromethyl)benzamide]",89.6 ± 10.9 nM
21,"C=CC(=O)NCc1nn(-c2ccccc2)c2c1[C@H](c1ccc(F)cc1)[C@H](NC(=O)c1cccc(C(F)(F)F)c1)C(=O)N2CC [RG-0014047, N-[(4S,5S)-7-ethyl-4-(4-fluorophenyl)-6-oxo-1-phenyl-3-[(prop-2-enamido)methyl]-1H,4H,5H,6H,7H-pyrazolo[3,4-b]pyridin-5-yl]-3-(trifluoromethyl)benzamide]",95.3 ± 4.67 nM
22,"Cc1cccc(C(=O)N[C@@H]2C(=O)N(C)c3c(c(C)nn3-c3ccccc3)[C@@H]2c2ccc(F)cc2)c1 [RG-0005655, N-[(4S,5S)-4-(4-fluorophenyl)-3,7-dimethyl-6-oxo-1-phenyl-1H,4H,5H,6H,7H-pyrazolo[3,4-b]pyridin-5-yl]-3-methylbenzamide]",446 ± 68.1 nM
23,"Cc1cccc(C(=O)N[C@@H]2C(=O)N(C)c3c(c(C)nn3C(C)(C)C)[C@@H]2c2ccc(F)cc2)c1 [RG-0007412, N-[(4S,5S)-1-tert-butyl-4-(4-fluorophenyl)-3,7-dimethyl-6-oxo-1H,4H,5H,6H,7H-pyrazolo[3,4-b]pyridin-5-yl]-3-methylbenzamide]",2340 ± 745 nM
24,"CCCN1CCN2C(=O)[C@@H](NC(=O)c3cccc(C)c3)[C@@H](c3ccc(F)cc3)C(C(C)=O)=C12 [RG-0008677, N-[(6S,7S)-8-acetyl-7-(4-fluorophenyl)-5-oxo-1-propyl-1H,2H,3H,5H,6H,7H-imidazo[1,2-a]pyridin-6-yl]-3-methylbenzamide]",5790 nM
25,"C#CCOCc1nn(-c2ccccc2)c2c1[C@H](c1ccc(F)cc1)[C@H](NC(=O)c1cccc(C)c1)C(=O)N2CC [RG-0013055, N-[(4S,5S)-7-ethyl-4-(4-fluorophenyl)-6-oxo-1-phenyl-3-[(prop-2-yn-1-yloxy)methyl]-1H,4H,5H,6H,7H-pyrazolo[3,4-b]pyridin-5-yl]-3-methylbenzamide]",168 ± 8.1 nM
